Tests used:
[1] = system: HPV16 E7 protein; assay: Western blotting for HPV16 E7 protein in CaSki cells; assay type: cell-based; conditions: 24 hours incubation, concentration series in μM
Procedure: (§1) Ciglitazone was incubated with CaSki cells (prototypic cervical cancer cells known to be infected with HPV16). The number of CaSki cells was 3×10^6 in a 10 cm diameter dish. Incubation were carried out for 24 hours with 0, 1, 5, 10 and 20 μM ciglitazone.
(§2) Western blotting was carried out to determine levels of HPV16 E7 protein. […] Northern blotting was carried out to determine levels of HPV16 E7 mRNA. […] Nuclear run-off testing was carried out to determine level of gene transcription.
(§3) Celebrex™ at concentrations of 0, 0.1, 0.25, 0.5, 1.0, 2.5 and 5.0 μM was incubated with CaSki cell (3.0×10^6 in a 10 cm diameter dish) for 24 hours.

[2] = system: HPV16 E6 mRNA; assay: Northern blotting for HPV16 E6 mRNA in CaSki cells; assay type: cell-based; conditions: for levels of HPV16 E6 mRNA (Northern blot): CaSki cells, 24 hours incubation, concentration series in μM; for HPV16 E6 mRNA (Northern blot): Background Example 7: CaSki cells, 24 hours, curcumin 5 μM, resveratrol 15 μM, ciglitazone 20 μM, 15d-PGJ2 15 μM
Procedure: as §3
Curcumin (5 μM), resveratrol (15 μM), ciglitazone (20 μM) or 15d-PGJ2 (15 μM) were incubated with CaSki cells (3×10^6 in a 10 cm diameter dish) for 24 hours.
Northern blot testing was carried our for HPV16 E6 mRNA.

[3] = system: HPV16 upstream regulatory region (URR); assay: HPV16 upstream regulatory region luciferase reporter transfected into CaSki cells; assay type: cell-based; conditions: 24 hours, 0-25 μM, FIG. 1
Procedure: HPV16 upstream regulatory region (URR) ligated to luciferase gene transfected into CaSki cells is incubated for 24 hours with ciglitazone and with 15d-PGJ2 (in each case, concentration of 0 μM, 5 μM, 10 μM, 15 μM, 20 μM and 25 μM). […] Note that cells contain endogenous activator that drives expression of E7, and ciglitazone and 15d-PGJ2 are shown to inhibit the activation.

[4] = system: HPV16 E7 mRNA; assay: EGF-mediated induction of HPV16 E7 mRNA in CaSki cells (Northern blot); assay type: cell-based; conditions: for EGF-mediated induction of HPV16 E7 mRNA (Northern blot): Background Example 5: EGF 10 nanograms/ml, 50 or 100 μM sulindac sulfide, 15 μM ciglitazone, 15 μM 15d-PGJ2; for EGF-mediated induction of HPV16 E7 (Northern blot, mRNA): Background Example 6: EGF 10 nanograms/ml, 100 μM NSAID, 25 μM 15d-PGJ2
Procedure: Epidermal growth factor at 10 nanograms/ml was added to CaSki cells (3×10^6 in a 10 cm diameter dish) together with 50 μM sulindac sulfide or 100 μM sulindac sulfide or 15 μM ciglitazone or 15 μM 15d-PGJ2.
Northern blot testing was carried out for HPV16 E7 mRNA.
Epidermal growth factor (EGF) at 10 nanograms/ml was incubated with CaSki cells (3×10^6 in a 10 cm diameter dish) and 100 μM ibuprofen, 100 μM piroxicam, 100 μM S-naproxen, 100 μM aspirin, 100 μM sulindac sulfone, 100 μM sulindac sulfide, 100 μM naproxen, 100 μM indomethacin, 100 μM flufenamic acid and for comparison purposes 25 μM 15d-PGJ2.

[5] = system: HPV16 E7 mRNA; assay: Northern blotting for HPV16 E7 mRNA in CaSki cells; assay type: cell-based; conditions: 24 hours incubation, concentration series in μM
Procedure: as §1, §2
NS-398 at concentrations of 0, 10, 20, 40, 60, 100, 250 and 500 μM was incubated with CaSki cells (3×10^6 in a 10 cm diameter dish) for 24 hours.
Northern blotting was carried out to determine HPV16 E7 mRNA levels in each case.

[6] = system: HPV16; assay: Treatment of patient with cervical intraepithelial neoplasia; assay type: in vivo, human; conditions: 25 mg orally each day for six months
Procedure: A person presents to their gynecologist for evaluation. […] On biopsy, the patient is found to have cervical intraepithelial neoplasia. HPV16 is detected. Treatment with Vioxx™ 25 mg orally each day is begun and given for six months. […] The Vioxx™ is discontinued with no recurrence of cervical intraepithelial neoplasia.

[7] = system: HPV16; assay: Treatment of patient with metastasized cervical cancer; assay type: in vivo, human; conditions: 50 mg orally three times a day for 12 months plus radiation therapy after hysterectomy
Procedure: A person seeks gynecologic evaluation because of pelvic pain. On pelvic examination, a cervical mass is detected. […] The patient undergoes a hysterectomy along with resection of regional lymph nodes. […] HPV16 is detected. The patient is treated with a course of radiation therapy plus indomethacin 50 mg orally three times a day for 12 months. […] The indomethacin is discontinued.

[8] = system: HPV mediated cutaneous warts; assay: Topical treatment of patient with HPV mediated cutaneous warts; assay type: in vivo, human; conditions: ointment containing 5%, twice a day, three months
Description: A child presents to a local dermatologist because of small cutaneous growths on the hand. A diagnosis of HPV mediated cutaneous warts is made. The patient is instructed to apply an ointment containing 5% rosiglitazone to the affected areas twice a day. […] The same results occur with an ointment containing 5% resveratrol instead of the ointment containing rosiglitazone.

| Structure (SMILES) | levels of HPV16 E7 protein (Western blot) [1] | levels of HPV16 E6 mRNA (Northern blot) [2] | EGF-mediated induction of HPV16 E7 (Northern blot, mRNA) [4] | further results |
| --- | --- | --- | --- | --- |
| NS(=O)(=O)c1ccc(-n2nc(C(F)(F)F)cc2-c2ccccc2)cc1 [4-[5-Phenyl-3-(trifluoromethyl)-1H-pyrazol-1-yl]benzenesulfonamide] | suppression | suppression | – | – |
| CCCCC/C=C/C=C1/C(=O)C=C[C@@H]1C/C=C\CCCC(=O)O [15d-PGJ2, 15-deoxy-Δ12,14-prostaglandin J2] | – | – | inhibition | HPV16 E6 mRNA (Northern blot) [2]: downregulation; luciferase activity of HPV16 upstream regulatory region [3]: dose dependent inhibition; EGF-mediated induction of HPV16 E7 mRNA (Northern blot) [4]: inhibition |
| Cc1ccc(-c2cc(C(F)(F)F)nn2-c2ccc(S(N)(=O)=O)cc2)cc1 [Celebrex™, 4-[5-(4-methylphenyl)-3-(trifluoromethyl)-1H-pyrazol-1-yl]benzenesulfonamide] | dose dependent suppression | dose dependent suppression | – | – |
| CS(=O)(=O)c1ccc(-c2cc(Br)sc2-c2ccc(F)cc2)cc1 [DuP-697, 5-bromo-2-(4-fluorophenyl)-3-(4-(methylsulfonyl)phenyl)thiophene] | suppression | suppression | – | – |
| CCCCCCCOC(=O)Cc1c(C)n(C(=O)c2ccc(Cl)cc2)c2ccc(OC)cc12 [Indomethacin heptyl ester] | dose dependent suppression | dose dependent suppression | – | – |
| COc1ccc2c(c1)c(CC(=O)NCCc1ccccc1)c(C)n2C(=O)c1ccc(Cl)cc1 [N-(2-phenylethyl)-indomethacin amide] | dose dependent suppression | dose dependent suppression | – | – |
| CS(=O)(=O)Nc1ccc([N+](=O)[O-])cc1OC1CCCCC1 [NS-398, N-[2-(cylohexyloxy)-4-nitrophenyl]-methanesulfonamide] | – | – | – | levels of HPV16 E7 mRNA (Northern blot) [5]: dose dependent suppression |
| COc1ccc2cc([C@H](C)C(=O)O)ccc2c1 [S-naproxen] | – | – | not | – |
| NS(=O)(=O)c1ccc(-n2nc(C(F)(F)F)cc2-c2ccc(Cl)cc2)cc1 [SC-236] | dose dependent suppression | dose dependent suppression | – | – |
| COc1ccc(-n2nc(C(F)(F)F)cc2-c2ccc(Cl)cc2)cc1 [SC-560, 5-(4-chlorophenyl)-1-(4-methoxyphenyl)-3-(trifluoromethyl)-1H-pyrazole] | suppression | suppression | – | cervical intraepithelial neoplasia on repeat biopsy [6]: no evidence of cervical intraepithelial neoplasia |
| CS(=O)(=O)c1ccc(-n2nc(C(F)(F)F)cc2-c2ccc(F)cc2)cc1 [SC-58125, 4-[5-(4-fluorophenyl)-3-(trifluoromethyl)-1H-pyrazol-1-yl]benzenemethylsulfone] | suppression | suppression | – | – |
| CS(=O)(=O)c1ccc(C2=C(c3ccccc3)C(=O)OC2)cc1 [Vioxx™, 3-(phenyl)-4-(4-(methylsulfonyl)phenyl)-2-(5H)-furanone] | – | – | – | cervical intraepithelial neoplasia on repeat biopsy [6]: no further evidence of cervical intraepithelial neoplasia |
| CC(=O)Oc1ccccc1C(=O)O [aspirin] | – | – | not | – |
| COc1cc(/C=C/C(=O)CC(=O)/C=C/c2ccc(O)c(OC)c2)ccc1O [curcumin] | – | – | – | HPV16 E6 mRNA (Northern blot) [2]: downregulation |
| O=C(O)c1ccccc1Nc1cccc(C(F)(F)F)c1 [flufenamic acid] | – | – | inhibition | – |
| CC(C)Cc1ccc(C(C)C(=O)O)cc1 (stereo not shown) [ibuprofen] | – | – | not | – |
| COc1ccc2c(c1)c(CC(=O)O)c(C)n2C(=O)c1ccc(Cl)cc1 [indomethacin] | – | – | inhibition | repeat CAT scan, cervical cancer [7]: no evidence of disease |
| COc1ccc2cc([C@H](C)C(=O)O)ccc2c1 [naproxen] | – | – | inhibition | – |
| CN1C(C(=O)Nc2ccccn2)=C(O)c2ccccc2S1(=O)=O [piroxicam] | – | – | not | – |
| Oc1ccc(C=Cc2cc(O)cc(O)c2)cc1 [resveratrol] | – | – | – | HPV16 E6 mRNA (Northern blot) [2]: downregulation; cutaneous warts after topical treatment [8]: same results |
| CSc1ccc(/C=C2/C(C)=C(CC(=O)O)c3cc(F)ccc32)cc1 [sulindac sulfide] | – | – | inhibition | EGF-mediated induction of HPV16 E7 mRNA (Northern blot) [4]: inhibition |
| CC1=C(CC(=O)O)c2cc(F)ccc2/C1=C\c1ccc(S(C)(=O)=O)cc1 [sulindac sulfone] | – | – | inhibition | – |

Source: US7183316B2, “Treatment of HPV caused diseases” (Cornell Research Foundation, Inc., priority 2001, dated 2007)
